This data set in a line: Single-molecule FRET cyclization (looping) of surface-immobilised 83 bp duplex with complementary 10-nt 5' overhangs; noncovalent ring closure by sticky-end hybridisation triggered by 1 M NaCl (no ligase). As to conditions: the molecule shown is the open-chain precursor, water, 50 mM Tris-HCl, 3 mM Trolox, glucose oxidase/catalase oxygen scavenger, other.

“DNA 5'-Cy5-acggattctgtgaaacggtggaggtgaggaT(biotin)agtcatgggtcaattagaagtcataggagaagtattaagggagtctatattgaggtactagc-3' / DNA 5'-Cy3-cagaatccgtgctagtacctcaatatagactcccttaatacttctcctatgacttctaattgacccatgactatcctcacctccaccgtttca-3'” showed a ring closure, halflife of 31.5 min.

In turn, “DNA 5'-Cy5-acggattctgtgaaacggtggaggtgaggaT(biotin)agtcatgggtcaattagaagtcataggagaagtattaagggagtctatattgaggtactagc-3' / RNA 5'-Cy3-cagaauccgugcuaguaccucaauauagacucccuuaauacuucuccuaugacuucuaauugacccaugacuauccucaccuccaccguuuca-3'” returned a ring closure, halflife of 20.4 min.

Regarding “DNA 5'-Cy5-agagaaagaggcaaaaggggacggaagggaT(biotin)ggagccagaggagggggtgacagttgagtctcagccacaggtgaaggtggagccactggagg-3' / RNA 5'-Cy3-cucuuucucuccuccaguggcuccaccuucaccuguggcugagacucaacugucacccccuccucuggcuccaucccuuccguccccuuuugc-3'”, the ring closure, halflife was 26.1 min.

As for “DNA 5'-Cy5-cctccagtggctccaccttcacctgtggcT(biotin)gagactcaactgtcaccccctcctctggctccatcccttccgtccccttttgcctctttctct-3' / RNA 5'-Cy3-ccacuggaggagagaaagaggcaaaaggggacggaagggauggagccagaggagggggugacaguugagucucagccacaggugaagguggag-3'”, the ring closure, halflife is 10.8 min.

As to “DNA 5'-Cy5-gaagaagaggaaaaaagaaaagggacagaT(biotin)ggcaatgatggagccagggacggaggcgatggagccagtggagccggagatgaagcctctgga-3' / RNA 5'-Cy3-ccucuucuucuccagaggcuucaucuccggcuccacuggcuccaucgccuccgucccuggcuccaucauugccaucugucccuuuucuuuuuu-3'”, the ring closure, halflife worked out at 21.7 min.

For the substance “DNA 5'-Cy5-tccagaggcttcatctccggctccactggcT(biotin)ccatcgcctccgtccctggctccatcattgccatctgtcccttttcttttttcctcttcttc-3' / RNA 5'-Cy3-agccucuggagaagaagaggaaaaaagaaaagggacagauggcaaugauggagccagggacggaggcgauggagccaguggagccggagauga-3'”, the ring closure, halflife was 10.3 min.

These data come from PMC12109412.
